From patent US20250288587A1, “Methods of Treating Fibrosis” (Athira Pharma, Inc., priority 2022, published 2025)

How the values were obtained:
[1] = system: C57BL/6 mice, bleomycin-induced pulmonary fibrosis; assay: Bleomycin-induced pulmonary fibrosis in mice; type: in vivo; parameters: key to Collagen, improvement in BLM-induced alterations versus disease control / Alpha-Smooth Muscle Actin, improvement in BLM-induced alterations versus disease control / Body Weight, improvement in BLM-induced alterations versus disease control / Right Lung Weight, improvement in BLM-induced alterations versus disease control / Hydroxyproline, improvement in BLM-induced alterations versus disease control: + = >5-25% improvement vs disease control; ++ = >26-50% improvement vs disease control; +++ = >51-100% improvement v disease control; NS means not significant; conditions: for Body Weight, improvement in BLM-induced alterations versus disease control / Right Lung Weight, improvement in BLM-induced alterations versus disease control: days 3-21; for Collagen, improvement in BLM-induced alterations versus disease control / Hydroxyproline, improvement in BLM-induced alterations versus disease control / TGF-Beta, improvement in BLM-induced alterations versus disease control: right lung homogenate
Method: Lung fibrosis in C57BL/6 mice is induced by a single […] injection of the chemotherapy drug bleomycin. Mice are treated with vehicle or test compound. At termination (study day 28), one lung is weighed, with increased weight indicating more advanced fibrosis. Lung tissue is also homogenized for hydroxyproline, collagen, and TGF-β quantification. Lung tissue is also formalin-fixed and further processed for H&E, collagen morphometry, Ashcroft's score, and both α-SMA and TUNEL expression analyses. Plasma is analyzed by multiplex bead array for MMP-2, MMP-9, IL-1β, IL-6, IL-12, and TNF-α expression.
The experimental design described in Example B1 with the following changes was used to assess the ability of Compound 1a to reduce pulmonary fibrosis. Briefly, Male C57BL/6 mice (Envigo) […] were used. The mice were 3.5-4 months old and ˜24-30 g by weight. On day −1 animals were randomized based on body weight and the animals were assigned with a permanent number by ear notching. Cages were identified by cage cards indicating the study code, group number, sex, dose, cage number, number of animals and animal number details.
On day 0, all animals (except the sham control animals) were administered bleomycin (0.03 U in 50 μl normal saline) intratracheally (i.t.) under Ketamine+Xylazine anesthesia. The sham control animals were dosed with 50 μl of normal saline intratracheally. Pirfenidone was used as a positive control; this compound is known to downregulate growth factors and procollagens to reduce fibrosis and is an approved drug for the treatment of idiopathic pulmonary fibrosis.
Vehicle, pirfenidone and test Compound 1a dosing was initiated from day 3 to day 21 as described in the following Table 2. On day 21 whole blood was collected 1-hour post-dose into EDTA and then processed to plasma. Right lungs were then collected, weighed, snap frozen and later homogenized for biochemical analysis. Hydroxyproline, collagen and TGF-Beta levels were measured in the right lung homogenates.

[2] = system: BALB/c mice, CCl4 mouse model of liver fibrosis; assay: CCl4-induced liver fibrosis, plasma AST; type: in vivo; conditions: for AST in plasma, improvement compared to disease control: from study day 21, termination day 43
Method: Liver fibrosis in BALB/c mice was induced by biweekly intraperitoneal injections of carbon tetrachloride (CCl4) from study day 0 to 43. Mice were treated with vehicle, Compound 1a, or positive control, SB535334, beginning at study day 21. At termination (study day 43), plasma was tested for liver function via levels of aspartate aminotransferase (AST).
AST can be used as a marker of liver damage, because increased levels are released in the blood stream in chronic liver disease.

[3] = dose 0.2 mg/kg PO daily, day 21
[4] = dose 0.8 mg/kg PO daily, day 21

## CCC(C)CN1CC2N(C(=O)c3ccc(C(F)(F)F)cc3)CCC(=O)N2[C@@H](C)C1=O (some centres unmarked) [Compound 1a]
[1]; 0.8 mg/k
  body weight loss compared to the other treatment groups: slightly greater weight loss
[1]; 2 mg/kg
  collagen in right lung homogenate compared with pirfenidone: about the same levels of collagen
[1]; 8 mg/kg
  collagen concentration in right lung homogenates: reduced compared to the pirfenidone positive control
[1]; 8 mg/kg and 2 mg/kg, also less than pirfenidone-treated animals
  hydroxyproline concentration in right lung homogenates at termination: lower concentrations of hydroxyproline
[1]; 8 mg/kg and 2 mg/kg, versus pirfenidone-treated animals
  weight of whole right lungs at termination (day 21): less than the positive control
[1]; 8 mg/kg, day 21
  alpha-smooth muscle actin expression: significantly reduced expression of this marker
[1]; all doses, day 21
  bleomycin-induced increases in TGF-β in right lung homogenates: significantly protected against bleomycin-induced increases in TGF-β
[1]; all treatment groups, over the study period
  protection against bleomycin-induced body weight loss: did not protect against body weight loss
[1]; dose 0.2 mg/kg PO daily
  Body Weight, improvement in BLM-induced alterations versus disease control: NS
[1]; [3]
  Right Lung Weight, improvement in BLM-induced alterations versus disease control: NS
  Alpha-Smooth Muscle Actin, improvement in BLM-induced alterations versus disease control: + (+ = >5-25% improvement vs disease control)
  Collagen, improvement in BLM-induced alterations versus disease control: NS
  Hydroxyproline, improvement in BLM-induced alterations versus disease control: NS
  TGF-Beta, improvement in BLM-induced alterations versus disease control: +++ (+++ = >51-100% improvement v disease control)
[1]; dose 0.8 mg/kg PO daily
  Body Weight, improvement in BLM-induced alterations versus disease control: NS
[1]; [4]
  Right Lung Weight, improvement in BLM-induced alterations versus disease control: + (+ = >5-25% improvement vs disease control)
  Alpha-Smooth Muscle Actin, improvement in BLM-induced alterations versus disease control: NS
  Collagen, improvement in BLM-induced alterations versus disease control: + (+ = >5-25% improvement vs disease control)
  Hydroxyproline, improvement in BLM-induced alterations versus disease control: NS
  TGF-Beta, improvement in BLM-induced alterations versus disease control: +++ (+++ = >51-100% improvement v disease control)
[1]; dose 2 mg/kg PO daily
  Body Weight, improvement in BLM-induced alterations versus disease control: NS
[1]; dose 2 mg/kg PO daily, day 21
  Right Lung Weight, improvement in BLM-induced alterations versus disease control: + (+ = >5-25% improvement vs disease control)
  Alpha-Smooth Muscle Actin, improvement in BLM-induced alterations versus disease control: + (+ = >5-25% improvement vs disease control)
  Collagen, improvement in BLM-induced alterations versus disease control: ++ (++ = >26-50% improvement vs disease control)
  Hydroxyproline, improvement in BLM-induced alterations versus disease control: ++ (++ = >26-50% improvement vs disease control)
  TGF-Beta, improvement in BLM-induced alterations versus disease control: +++ (+++ = >51-100% improvement v disease control)
[1]; dose 8 mg/kg PO daily
  Body Weight, improvement in BLM-induced alterations versus disease control: NS
[1]; dose 8 mg/kg PO daily, day 21
  Right Lung Weight, improvement in BLM-induced alterations versus disease control: ++ (++ = >26-50% improvement vs disease control)
  Alpha-Smooth Muscle Actin, improvement in BLM-induced alterations versus disease control: ++ (++ = >26-50% improvement vs disease control)
  Collagen, improvement in BLM-induced alterations versus disease control: +++ (+++ = >51-100% improvement v disease control)
  Hydroxyproline, improvement in BLM-induced alterations versus disease control: + (+ = >5-25% improvement vs disease control)
  TGF-Beta, improvement in BLM-induced alterations versus disease control: +++ (+++ = >51-100% improvement v disease control)
[1]; other doses of Compound 1a, pirfenidone doses, day 21
  alpha-smooth muscle actin morphometory: insignificant decreases
[2]; 0.5 mg/kg, 8 mg/kg, and 16 mg/kg
  AST levels in plasma compared to CCl4-treated mice receiving vehicle: modest but non-significant decreases
[2]; Dose 0.5 (mg/kg)
  AST in plasma, improvement compared to disease control: ++ (++ = >26-50% improvement compared to disease control)
[2]; Dose 2 (mg/kg)
  AST in plasma, improvement compared to disease control: − (− = change of <5% compared to disease control)
[2]; Dose 8 (mg/kg)
  AST in plasma, improvement compared to disease control: ++ (++ = >26-50% improvement compared to disease control)
[2]; Dose 16 (mg/kg)
  AST in plasma, improvement compared to disease control: ++ (++ = >26-50% improvement compared to disease control)
